Source: patent US20180156808A1, “METHODS FOR DIAGNOSIS AND PROGNOSIS OF CANCERS OF EPITHELIAL ORIGIN” (Children's Medical Center Corporation, priority 2004, published 2018)

T1: ADAM 12-S (Homo sapiens, UniProt O43184)
T1 construct: The full-length human ADAM 12-S gene was cloned into plasmid (p1151); made in house; host or cells: Cos-7 cells (ATCC, CRL 1651)
T1 sequence (O43184 208-738 isoform O43184-2 limits assumed): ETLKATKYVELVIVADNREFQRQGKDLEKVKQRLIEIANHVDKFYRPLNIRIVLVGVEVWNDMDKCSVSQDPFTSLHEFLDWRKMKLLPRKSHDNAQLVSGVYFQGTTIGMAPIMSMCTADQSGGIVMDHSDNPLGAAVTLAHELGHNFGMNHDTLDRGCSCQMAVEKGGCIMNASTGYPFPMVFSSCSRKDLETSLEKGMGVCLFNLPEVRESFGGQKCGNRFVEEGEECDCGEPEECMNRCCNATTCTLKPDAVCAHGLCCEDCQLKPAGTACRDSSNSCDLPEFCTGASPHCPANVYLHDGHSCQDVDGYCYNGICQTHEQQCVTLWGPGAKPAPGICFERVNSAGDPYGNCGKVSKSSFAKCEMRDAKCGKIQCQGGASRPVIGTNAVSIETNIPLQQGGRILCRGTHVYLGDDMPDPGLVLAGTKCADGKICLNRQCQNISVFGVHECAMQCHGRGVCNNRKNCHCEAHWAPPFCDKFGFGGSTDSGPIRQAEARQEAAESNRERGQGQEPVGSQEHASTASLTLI
T1 sequence (O43184 29-207 partner limits assumed): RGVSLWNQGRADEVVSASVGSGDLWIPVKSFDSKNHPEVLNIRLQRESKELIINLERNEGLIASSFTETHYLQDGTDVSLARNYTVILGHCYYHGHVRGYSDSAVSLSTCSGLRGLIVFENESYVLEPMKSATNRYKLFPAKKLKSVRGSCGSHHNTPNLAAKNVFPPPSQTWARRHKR


Target: T1, ADAM 12-S
Assay: Inhibition of gelatin degradation by ADAM 12 (SDS-PAGE, Coomassie staining)
Format: biochemical
Details: ADAM 12 160 nM, 37° C., 18 h; for inhibition of gelatin degradation by ADAM 12: 30 μg gelatin
Description: The full-length human ADAM 12-S gene was cloned into plasmid (p1151) and transfection of Cos-7 cells (ATCC, CRL 1651) was conducted as previously described (5). Expressed recombinant ADAM 12-S secreted into the conditioned medium, was purified as previously described with minor modifications. Briefly, conditioned media from transfected Cos-7 cells was subjected to successive steps of SP Sepharose and ConA Sepharose chromatography as described (6). ADAM 12-S containing fractions from the ConA Sepharose column were pooled and after buffer exchange applied to a Vivapure H Mini Q column (VivaScience, Carlsbad, Calif.) pre-equilibrated with buffer A containing 0.05% CHAPS. Pure ADAM 12-S was detected in the flow-through fraction as determined by SDS-PAGE and immunoblot analysis.
Gelatin, Type IV collagen, fibronectin and casein-degrading activity of ADAM 12-S was measured as previously described (14). ADAM 12-S (1 μM) was mixed with non-reducing sample buffer and separated on a 10% polyacrylamide gel containing either 0.1% gelatin, 0.1% Type IV collagen or 0.02% fibronectin and a 12% polyacrylamide gel containing 0.1% casein. After electrophoresis, the gel was washed with 2.5% Triton X-100 for 30 min. Substrate digestion was conducted by incubating the gel in 50 mM Tris, pH 7.6, containing 5 mM CaCl2, 1 μM ZnCl2 and 0.02% NaN3 at 37° C. for 18 h. Gels were stained with 0.1% Coomassie and bands of enzyme activity were detected as zones of clearance on a background of uniform blue staining. […] For inhibition assays, ADAM 12 (160 nM) was incubated with 30 μg gelatin in assay buffer (50 mM Tris, pH 7.5) in the presence or absence of various inhibitors 5 mM 1, 10-phenanthroline, 5 mM EDTA, 1 mM Marimastat or two different concentrations (100 and 500 nM) of either TIMP-1, TIMP-2, TIMP-3 or TIMP-4 in a final volume of 30 μl at 37° C. for 18 h. Reactions were stopped with the addition of non-reducing sample buffer and the samples resolved by SDS-PAGE analysis followed by Coomassie staining.

[1] = inhibitor 100 and 500 nM (even at concentrations 5-fold higher than the enzyme)

Molecule | inhibition of gelatin degradation by ADAM 12 (inhibitor 5 mM) | inhibition of the gelatinase activity of ADAM 12 [1] | other results
c1cnc2c(c1)ccc1cccnc12 [1, 10-phenanthroline] | inhibited | – | –
O=C(O)CN(CCN(CC(=O)O)CC(=O)O)CC(=O)O [EDTA] | inhibited | – | –
CNC(=O)[C@@H](NC(=O)[C@H](CC(C)C)[C@H](O)C(=O)NO)C(C)(C)C [Marimastat] | – | – | inhibition of gelatin degradation by ADAM 12 (inhibitor 1 mM): partial inhibition
TIMP-1: endogenous inhibitor | – | did not inhibit | –
TIMP-4: endogenous inhibitor (protein, UniProt Q99727 30-224, looked up) Metalloproteinase inhibitor 4: CSCAPAHPQQHICHSALVIRAKISSEKVVPASADPADTEKMLRYEIKQIKMFKGFEKVKDVQYIYTPFDSSLCGVKLEANSQKQYLLTGQVLSDGKVFIHLCNYIEPWEDLSLVQRESLNHHYHLNCGCQITTCYTVPCTISAPNECLWTDWLLERKLYGYQAQHYVCMKHVDGTCSWYRGHLPLRKEFVDIVQP | – | did not inhibit | –
TIMP-3: endogenous inhibitor (protein, UniProt P35625 24-211, looked up) Metalloproteinase inhibitor 3: CTCSPSHPQDAFCNSDIVIRAKVVGKKLVKEGPFGTLVYTIKQMKMYRGFTKMPHVQYIHTEASESLCGLKLEVNKYQYLLTGRVYDGKMYTGLCNFVERWDQLTLSQRKGLNYRYHLGCNCKIKSCYYLPCFVTSKNECLWTDMLSNFGYPGYQSKHYACIRQKGGYCSWYRGWAPPDKSIINATDP | – | – | inhibition of the gelatinase activity of ADAM 12 (inhibitor 500 nM): effective inhibitor
